Measurements reported in article PMC7531004, “Discovery of gramicidin A analogues with altered activities by multidimensional screening of a one-bead-one-compound library” (Nature Communications, 2020).
Where a SMILES comes first, the peptide text is derived from it. [ ]: non-standard residue; d: D form. The star is where a group is joined. NHCH2CH2OH = OCCN*; For = O=C*

Assays:
[1] = system: Streptococcus pyogenes SSI-9; test: Antibacterial activity assay of bead-derived peptides (three concentrations); assay type: cell-based; set-up: key: +++: inhibition by the 640-fold diluted peptide solution; ++: inhibition by the 160-fold diluted solution; +: inhibition by the 40-fold diluted solution; -: no inhibition; conditions: S. pyogenes, bead-derived peptide solution, three concentrations
Outline: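 Bead-derived library peptide stocks in DMSO were tested undiluted and after 4- and 16-fold DMSO dilution against S. pyogenes SSI-9 (2 × 10^5 CFU/well) in cation-adjusted Mueller Hinton Broth with 5% laked horse blood. After 18 h at 37 °C, wells were scored for precipitation of grown cells.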

[2] = H+/Na+ transport assay of bead-derived peptides (one-point); assay type: biochemical; set-up: key: relative activity; mean of two control wells = 1.00; conditions: bead-derived peptide solution, EYPC/EYPG LUVs;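 further: relative to parent gramicidin A activity set to 1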
Outline: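 Pyranine (1.0 mM)-loaded LUVs containing egg yolk phosphatidylglycerol were prepared by film hydration, sonication and extrusion, then mixed with diluted bead-derived peptide in 96-well format and vortexed 30 min at room temperature. Fluorescence was normalized between untreated LUVs (0%) and Triton X-100 lysis (100%).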

[3] = system: P388 mouse leukemia cells; conditions: 92 h
Outline: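 First, library peptide stocks are diluted 250-fold in RPMI1640 with 10% heat-inactivated FBS. Next, they are mixed with P388 cells to give 1 × 10^4 cells/mL and incubated 92 h at 37 °C, 5% CO2. Finally, viability (%) is scored by WST-1 absorbance at 415 nm.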

| Structure (SMILES) | antibacterial activity [1] | H+/Na+ transport activity normalized against the value of 1 (1.00) [2] | cell viability/% [3] |
| --- | --- | --- | --- |
| CNC(=O)C[C@@H](NC(=O)[C@@H](NC(=O)[C@H](NC(=O)[C@H](C)NC(=O)[C@@H](CC(C)C)NC(=O)[C@H](C)NC(=O)CNC(=O)[C@@H](NC=O)C(C)C)C(C)C)C(C)C)C(=O)N[C@@H](Cc1c[nH]c2ccccc12)C(=O)N[C@H](CC(C)C)C(=O)N[C@@H](Cc1c[nH]c2ccccc12)C(=O)N[C@@H](C(=O)N[C@@H](Cc1c[nH]c2ccccc12)C(=O)N[C@H](CC(C)C)C(=O)N[C@@H](Cc1c[nH]c2ccccc12)C(=O)NCCO)C(C)C [compound 10669] (For-VGA[dL]A[dV]V[dD](NHMe)W[dL]W[dV]W[dL]W-NHCH2CH2OH) | - | 1.11 | 55.2% |
| CC(C)C[C@@H](NC(=O)[C@H](Cc1c[nH]c2ccccc12)NC(=O)[C@H](NC(=O)[C@H](Cc1c[nH]c2ccccc12)NC(=O)[C@H](NC(=O)[C@H](Cc1c[nH]c2ccccc12)NC(=O)[C@H](NC(=O)[C@@H](NC(=O)[C@H](NC(=O)[C@H](C)NC(=O)[C@H](NC(=O)[C@H](C)NC(=O)CNC(=O)[C@@H](NC=O)C(C)C)C(C)C)C(C)C)C(C)C)C(C)C)C(C)C)C(C)C)C(=O)N[C@@H](Cc1c[nH]c2ccccc12)C(=O)NCCO [compound 1004] (For-VGA[dV]A[dV]V[dV]W[dV]W[dV]W[dL]W-NHCH2CH2OH) | + | 1.04 | 60.4% |
| CC(C)C[C@@H](NC(=O)[C@H](C)NC(=O)CNC(=O)[C@@H](NC=O)C(C)C)C(=O)N[C@@H](C)C(=O)N[C@@H](C(=O)N[C@H](C(=O)N[C@H](CC(C)C)C(=O)N[C@@H](Cc1c[nH]c2ccccc12)C(=O)N[C@@H](C(=O)N[C@@H](Cc1c[nH]c2ccccc12)C(=O)N[C@H](CC(C)C)C(=O)N[C@@H](Cc1c[nH]c2ccccc12)C(=O)N[C@@H](C(=O)N[C@@H](Cc1c[nH]c2ccccc12)C(=O)NCCO)[C@H](C)O)C(C)C)C(C)C)C(C)C [compound 8906] (For-VGA[dL]A[dV]V[dL]W[dV]W[dL]W[dT]W-NHCH2CH2OH) | + | 1.08 | 79.1% |
| CNC(=O)C[C@@H](NC(=O)[C@H](C)NC(=O)[C@@H](CC(C)C)NC(=O)[C@H](C)NC(=O)CNC(=O)[C@@H](NC=O)C(C)C)C(=O)N[C@H](C(=O)N[C@@H](C(=O)N[C@@H](Cc1c[nH]c2ccccc12)C(=O)N[C@H](CC(C)C)C(=O)N[C@@H](Cc1c[nH]c2ccccc12)C(=O)N[C@@H](C(=O)N[C@@H](Cc1c[nH]c2ccccc12)C(=O)N[C@H](CC(C)C)C(=O)N[C@@H](Cc1c[nH]c2ccccc12)C(=O)NCCO)C(C)C)C(C)C)C(C)C [compound 8535] (For-VGA[dL]A[dD](NHMe)V[dV]W[dL]W[dV]W[dL]W-NHCH2CH2OH) | - | 1.28 | 71.4% |
| CC(C)C[C@@H](NC(=O)[C@H](C)NC(=O)CNC(=O)[C@@H](NC=O)C(C)C)C(=O)N[C@@H](C)C(=O)N[C@H](CC(C)C)C(=O)N[C@H](C(=O)N[C@@H](C(=O)N[C@@H](Cc1c[nH]c2ccccc12)C(=O)N[C@H](CC(C)C)C(=O)N[C@@H](Cc1c[nH]c2ccccc12)C(=O)N[C@@H](C(=O)N[C@@H](Cc1c[nH]c2ccccc12)C(=O)N[C@@H](C(=O)N[C@@H](Cc1c[nH]c2ccccc12)C(=O)NCCO)C(C)C)C(C)C)C(C)C)C(C)C [compound 9607] (For-VGA[dL]A[dL]V[dV]W[dL]W[dV]W[dV]W-NHCH2CH2OH) | + | 1.03 | 48.6% |
| CC(C)C[C@@H](NC(=O)[C@H](C)NC(=O)CNC(=O)[C@@H](NC=O)C(C)C)C(=O)N[C@@H](C)C(=O)N[C@@H](C(=O)N[C@H](C(=O)N[C@@H](C(=O)N[C@@H](Cc1c[nH]c2ccccc12)C(=O)N[C@@H](C(=O)N[C@@H](Cc1c[nH]c2ccccc12)C(=O)N[C@H](CC(C)C)C(=O)N[C@@H](Cc1c[nH]c2ccccc12)C(=O)N[C@@H](C(=O)N[C@@H](Cc1c[nH]c2ccccc12)C(=O)NCCO)C(C)C)C(C)C)[C@H](C)O)C(C)C)C(C)C [compound 4357] (For-VGA[dL]A[dV]V[dT]W[dV]W[dL]W[dV]W-NHCH2CH2OH) | - | 1.01 | 100.0% |
| CC(C)C[C@@H](NC(=O)[C@H](C)NC(=O)CNC(=O)[C@@H](NC=O)C(C)C)C(=O)N[C@@H](C)C(=O)N[C@@H](C(=O)N[C@H](C(=O)N[C@H](CC(C)C)C(=O)N[C@@H](Cc1c[nH]c2ccccc12)C(=O)N[C@@H](C(=O)N[C@@H](Cc1c[nH]c2ccccc12)C(=O)N[C@@H](C(=O)N[C@@H](Cc1c[nH]c2ccccc12)C(=O)N[C@@H](C(=O)N[C@@H](Cc1c[nH]c2ccccc12)C(=O)NCCO)C(C)C)C(C)C)C(C)C)C(C)C)C(C)C [compound 8796] (For-VGA[dL]A[dV]V[dL]W[dV]W[dV]W[dV]W-NHCH2CH2OH) | + | 1.15 | 74.1% |
| CC(C)C[C@@H](NC(=O)[C@H](C)NC(=O)CNC(=O)[C@@H](NC=O)C(C)C)C(=O)N[C@@H](C)C(=O)N[C@H](CC(C)C)C(=O)N[C@H](C(=O)N[C@H](CC(C)C)C(=O)N[C@@H](Cc1c[nH]c2ccccc12)C(=O)N[C@H](CC(C)C)C(=O)N[C@@H](Cc1c[nH]c2ccccc12)C(=O)N[C@@H](C(=O)N[C@@H](Cc1c[nH]c2ccccc12)C(=O)N[C@@H](C(=O)N[C@@H](Cc1c[nH]c2ccccc12)C(=O)NCCO)C(C)C)[C@H](C)O)C(C)C [compound 3143] (For-VGA[dL]A[dL]V[dL]W[dL]W[dT]W[dV]W-NHCH2CH2OH) | + | 1.04 | 99.9% |
| CNC(=O)C[C@@H](NC(=O)[C@H](Cc1c[nH]c2ccccc12)NC(=O)[C@H](NC(=O)[C@H](Cc1c[nH]c2ccccc12)NC(=O)[C@H](NC(=O)[C@H](Cc1c[nH]c2ccccc12)NC(=O)[C@@H](CC(C)C)NC(=O)[C@@H](NC(=O)[C@H](NC(=O)[C@H](C)NC(=O)[C@@H](CC(C)C)NC(=O)[C@H](C)NC(=O)CNC(=O)[C@@H](NC=O)C(C)C)C(C)C)C(C)C)C(C)C)C(C)C)C(=O)N[C@@H](Cc1c[nH]c2ccccc12)C(=O)NCCO [compound 6520] (For-VGA[dL]A[dV]V[dL]W[dV]W[dV]W[dD](NHMe)W-NHCH2CH2OH) | - | 1.08 | 100.0% |
| CC(C)C[C@@H](NC(=O)[C@H](C)NC(=O)[C@H](NC(=O)[C@H](C)NC(=O)CNC(=O)[C@@H](NC=O)C(C)C)[C@H](C)O)C(=O)N[C@H](C(=O)N[C@H](CC(C)C)C(=O)N[C@@H](Cc1c[nH]c2ccccc12)C(=O)N[C@@H](C(=O)N[C@@H](Cc1c[nH]c2ccccc12)C(=O)N[C@H](CC(C)C)C(=O)N[C@@H](Cc1c[nH]c2ccccc12)C(=O)N[C@@H](C(=O)N[C@@H](Cc1c[nH]c2ccccc12)C(=O)NCCO)C(C)C)[C@H](C)O)C(C)C [compound 6248] (For-VGA[dT]A[dL]V[dL]W[dT]W[dL]W[dV]W-NHCH2CH2OH) | - | 1.10 | 87.7% |
| CC(C)[C@H](NC=O)C(=O)NCC(=O)N[C@@H](C)C(=O)N[C@@H](C(=O)N[C@@H](C)C(=O)N[C@@H](C(=O)N[C@H](C(=O)N[C@@H](C(=O)N[C@@H](Cc1c[nH]c2ccccc12)C(=O)N[C@@H](C(=O)N[C@@H](Cc1c[nH]c2ccccc12)C(=O)N[C@@H](C(=O)N[C@@H](Cc1c[nH]c2ccccc12)C(=O)N[C@@H](C(=O)N[C@@H](Cc1c[nH]c2ccccc12)C(=O)NCCO)C(C)C)C(C)C)C(C)C)C(C)C)C(C)C)C(C)C)C(C)C [compound 10276] (For-VGA[dV]A[dV]V[dV]W[dV]W[dV]W[dV]W-NHCH2CH2OH) | + | 1.04 | 100.0% |
| CC(C)C[C@@H](NC(=O)[C@H](C)NC(=O)CNC(=O)[C@@H](NC=O)C(C)C)C(=O)N[C@@H](C)C(=O)N[C@H](CC(C)C)C(=O)N[C@H](C(=O)N[C@@H](C(=O)N[C@@H](Cc1c[nH]c2ccccc12)C(=O)N[C@@H](C(=O)N[C@@H](Cc1c[nH]c2ccccc12)C(=O)N[C@@H](C(=O)N[C@@H](Cc1c[nH]c2ccccc12)C(=O)N[C@H](CC(C)C)C(=O)N[C@@H](Cc1c[nH]c2ccccc12)C(=O)NCCO)C(C)C)[C@H](C)O)C(C)C)C(C)C [compound 12081] (For-VGA[dL]A[dL]V[dV]W[dT]W[dV]W[dL]W-NHCH2CH2OH) | - | 1.01 | 100.0% |
| CC(C)C[C@@H](NC(=O)[C@H](C)NC(=O)[C@H](NC(=O)[C@H](C)NC(=O)CNC(=O)[C@@H](NC=O)C(C)C)[C@H](C)O)C(=O)N[C@H](C(=O)N[C@@H](C(=O)N[C@@H](Cc1c[nH]c2ccccc12)C(=O)N[C@@H](C(=O)N[C@@H](Cc1c[nH]c2ccccc12)C(=O)N[C@H](CC(C)C)C(=O)N[C@@H](Cc1c[nH]c2ccccc12)C(=O)N[C@H](CC(C)C)C(=O)N[C@@H](Cc1c[nH]c2ccccc12)C(=O)NCCO)C(C)C)C(C)C)C(C)C [compound 9112] (For-VGA[dT]A[dL]V[dV]W[dV]W[dL]W[dL]W-NHCH2CH2OH) | - | 1.10 | 72.6% |
